The source of these data is patent US6372963B1, “Transformation method for plants” (Aventis CropScience N.V., priority 1998, dated 2002).

What all share (format): cell-based
For experiment [1], the system named is type I calli from the PHH corn line. As to the kind of experiment: Agrobacterium-mediated transformation of plant-phenolic pre-treated type I callus from corn. Conditions: for Approximate mean transformation frequency with pretreatment: 5 days on 100-200 μM acetosyringone; for PAT-positive plant lines: about 4000 pre-treated callus fragments. From the text:
Type I callus fragments were obtained essentially as described in WO 92/09696. Immature embryos from corn line (Pa91xH99)xH99 (PHH-line) were excised from the kernel 9-12 days after pollination, surface sterilized and plated on Mahi1VII medium for the induction of type I callus. Type I callus was subcultured on the same medium with one month intervals for about two to six months. Next, type I callus was finely cut in fragments with an average length of about 1.5 mm, and the resulting fragments were incubated-for 5 days on LSIDhy1.5VII substrate supplemented with 100-200 μM acetosyringone. The pre-induced callus pieces were collected and without further wounding, immersed in a suspension of the appropriate Agrobacterium strain for about 3 to about 20 minutes. The bacterial suspension was obtained in the following way: bacteria were grown for 3 to 6 days on MAG medium [minimal A medium (Jeffrey Miller, 1972) supplemented with 2 g/L glucose] or AB medium (Chilton et al., 1974). The bacteria were harvested, and resuspended in liquid LSI substrate supplemented with 100-200 μM acetosyringone, at a concentration of about 5×10^9 cells/ml.
After immersion in the bacterial suspension, the callus fragments were co-cultivated on LSIIDhy1.5XI medium, supplemented with 100-200 μM acetosyringone, at about 25° C. for 3 to 6 days (3 days for LBA-type strain, 6 days for EHA-type strain).
After co-cultivation, the tissue was transferred to Ahx1.5VIIp500ino1000ppT10 and cultured for3 to 4 weeks. Proliferating, phosphinotricin (PPT)-resistant calli were excised and subcultured at least twice, with 3 week subculture intervals on Mh1VIIp500ppT5. Embryogenic PPT-resistant calli were plated on regeneration medium (A37VIIp500 ppT2.), and the embryogenic tissue was subcultured twice, with 10 to 14 day intervals, on the same medium. Small plants were transferred to glass containers containing A6%VIIp500ppT2 substrate for further growth, and developing shoots were then transferred to half-strength MS medium supplemented with 1.5% sucrose to allow further shoot elongation as well as rooting. Plants were tested for phosphinothricin acetyl transferase (PAT) activity, and PAT-positive plants were transferred to the greenhouse. PAT-positive plants were tested for the presence of the transgene by Southern hybridization.
Type I callus fragments were obtained as described in Example I and incubated for 5 days on LSIDhy1.5VII substrate supplemented with 100 μM of acetosyringone, followed by co-cultivation with Agrobacterium strain A3532 and A3638. For strain A3532 only I PAT-positive plant was obtained, even with acetosyringone pretreatment (transformation frequency<0.1%). However, the presence of the functional virB promoter preceding the virB11 open reading frame on the T-DNA vector, improved the transformation efficiency (see Table I) at least almost ten times.
Type I callus fragments were obtained as described in Example 1 and incubated for 5 days on LSIDhy1.5VII substrate supplemented with 100 μM of the plant phenolic compounds of Table II. Approximately 200 pre-induced callus fragments were co-cultivated with Agrobacterium strain A3637 (or A3638).
Type I callus fragments were obtained as described in Example 1 and incubated for 5 days on LSIDhy1.5VII substrate supplemented with either 200 μM of acetosyringone or a combination of 100 μM acetosyringone and 100 μM p-hydroxybenzoic acid. About 250 callus pieces were co-cultivated with Agrobacterium strain A3533. Whereas 2 shoot-regenerating lines (comprising 1 PAT-positive line) were obtained on PPT containing media after pre-induction on acetosyringone (frequency about 1%), 7 shoot regenerating lines (comprising 5 PAT-positive lines) were obtained on PPT containing media after pre-induction on acetosyringone plus p-hydroxybenzoic acid (frequency about 3%).

Experiment [2] concerns type I callus from corn. As to the kind of experiment: Transformation by electroporation of acetosyringone pre-treated type I callus from corn. Conditions: 5 days on 100 μM acetosyringone. Here is the method: Finely chopped pieces of calli, derived from type I callus and pre-incubated for 5 days on 100 μM acetosyringone-containing medium, as described in Example 1, were subjected without further wounding to electroporation as described in […]/09696. Briefly, about 50 callus pieces were resuspended in 100 μl EPM-KCl buffer and preplasmolyzed for 3 hr at room temperature. Next the callus pieces were washed in EPM+KCl buffer and transferred to an electrocuvette in EPM+KCl buffer. Plasmid DNA (10 μg of pDE110) was added, and the DNA was incubated with the callus fragments for about 1 hr at room temperature. Electroporation was carried out using standard conditions (1 pulse with initial field strength 375 V/cm from a 900 μF capacitor). The calli were never kept on ice. Phosphinotricin-resistant calli were selected and plants regenerated as described ([…]/09696). Phosphinotricin acetyl transferase activity was detected as described ([…]/09696).

Experiment [3] relates to type I calli obtained from corn plant line (Pa91xH99)xPa91 (PHP). As to the kind of experiment: Agrobacterium co-cultivation of acetosyringone pre-treated type I calli, PHP line.
Experiment [4] relates to type I calli obtained from corn plant line Pa91. Briefly: Agrobacterium co-cultivation of acetosyringone pre-treated type I calli, Pa91 line.
[5] abbreviates: 5 days on 100 μM compound, approximately 200 callus fragments, strain A3637 (or A3638).
The mark [6] stands for this setting: electroporation of about 530 callus pieces.
Where [7] appears, read: strain A3533, about 250 callus pieces, 200 μM acetosyringone or 100 μM acetosyringone + 100 μM p-hydroxybenzoic acid, 5 days.

As to `Oc1ccccc1O` [catechol, 1,2-dihydroxybenzene], in experiment [1] (setting [5]), the “Number of PAT-positive lines” value is reported as 1 and the Transformation frequency is reported as 0.5%.

As for `O=C(O)c1ccc(O)cc1` [p-hydroxybenzoic acid, 4-hydroxybenzoic acid], in experiment [1] (setting [5]), the “Number of PAT-positive lines” value stood at 2 and the Transformation frequency was determined as 1%.

In the case of `O=C(O)c1cc(O)c(O)c(O)c1` [gallic acid, 3,4,5-trihydroxybenzoic acid], in experiment [1] (setting [5]), the “Number of PAT-positive lines” value is reported as 3 and the Transformation frequency is recorded as 1.5%.

As to `O=C(O)c1ccc(O)cc1O` [2,4-dihydroxybenzoic acid, 2,4 dihydroxybenzoic acid], in experiment [1] (setting [5]), the “Number of PAT-positive lines” value is on record as 1 and the Transformation frequency was 0.5%.

`O=C(O)c1ccc(O)c(O)c1` [3,4-dihydroxybenzoic acid]: in experiment [1] (setting [5]), the “Number of PAT-positive lines” value stood at 2 and the Transformation frequency amounted to 1%.

Take `COc1cc(C=O)ccc1O` [vanillin, 3-methoxy-4-hydroxybenzaldehyde]: in experiment [1] (setting [5]), the “Number of PAT-positive lines” value was 4 and the Transformation frequency is 2%.

For the compound `COc1cc(C(C)=O)cc(OC)c1O` [acetosyringone, 3,5-dimethoxy-4-hydroxyacetophenone], the PAT-positive plants in experiment [2] (setting [6]) was found to be 4. For the same compound, the Transformation frequency result is listed as “about 0.75%” in experiment [2] (setting [6]); 1% in experiment [1] (setting [5]); below 0.1% in experiment [1] (strain A3532, 5 days on 100 μM acetosyringone). Besides, the “transformation frequency relative to callus not pre-treated” value in experiment [2] (electroporation) was “about three times higher”. For the same compound, the “effect of pre-treatment on transformation frequency” value in experiment [3] and in experiment [4] was “Enhancement of transformation frequency” throughout. Also, in experiment [1] (setting [5]), the “Number of PAT-positive lines” value amounted to 2. Further, the “Approximate mean transformation frequency with pretreatment” value is listed as 0.8% in experiment [1] (Agrobacterium strain A3533), 0.8% in experiment [1] (Agrobacterium strain A3637) and 0.9% in experiment [1] (Agrobacterium strain A3638). For the same compound, the “low concentration still giving a good effect on transformation efficiency” value in experiment [1] (pretreatment medium) is given as “approximately 25 μM”. Besides, the “optimal concentration in the medium” value in experiment [1] (pretreatment medium) is “approximately 200 μM”. Also, the PAT-positive lines in experiment [1] (strain A3460, about 1700 pre-treated callus fragments) was 5; in experiment [1] (setting [7]), 1. Also, the frequency entry in experiment [1] (setting [7]) is on record as “about 1%”. For the same compound, the “shoot-regenerating lines on PPT containing media” value in experiment [1] (setting [7]) is recorded as 2. Moreover, the results for the PAT-positive plant lines in experiment [1] (strain A3533), in experiment [1] (strain A3637) and in experiment [1] (strain A3638) were 30, 33 and 37, respectively. In addition, in experiment [1] (strains A3638, A3533 and A3637, about 4000 pre-treated callus fragments each), the average transformation frequencies entry was “about 1%”. Also, the “increase in transformation efficiency by pretreatment” value in experiment [1] (versus no pretreatment, co-cultivation with Agrobacterium strains) is “at least three times”.
